Test results taken from patent US9428465B2, “Acid ceramidase inhibitors and their use as medicaments” (FONDAZIONE ISTITUTO ITALIANO DI TECHNOLOGIA, priority 2012, dated 2016).

Legend:
[1] = target: rat acid ceramidase (rAC) (Rattus norvegicus (Rat), UniProt Q6P7S1); test: Rat acid ceramidase (rAC) enzymatic assay, LC/MS of lauric acid; assay type: biochemical; details: rat acid ceramidase, 100 μM N-lauroyl ceramide, pH 4.5
Description: A lysosomal rat acid ceramidase (rAC) protein preparation was obtained from cells stably expressing rAC resuspended in 20 mM Tris HCl (pH 7.5) with 0.32 M sucrose. Samples were sonicated and centrifuged at 800×g for 15 min at 4° C. Supernatants were then centrifuged at 12,000×g for 30 min at 4° C. Pellets were re-suspended in PBS pH 7.4 and subjected to 2 freeze-thaw cycles at −80° C. The suspension was finally centrifuged at 105,000×g for 1 hr at 4° C. and the supernatant containing rAC was then used in the enzymatic assay.
r-AC protein samples were pre-incubated with various concentrations of test compounds or vehicle control in 100 mM NaH2PO4/citrate buffer pH 4.5, 0.1% Nonidet P-40, 3 mM DTT for 30 min at 37° C. Samples were incubated with 100 μM N-lauroyl ceramide (Nu-Chek Prep, Elysian, Minn.) at 37° for 30 min. The reaction was stopped by addition of a mixture of chloroform/methanol (2:1 vol/vol) containing 1 nmol of heptadecanoic acid (HDA; NuChek Prep). The organic phases were collected, dried under nitrogen, and analyzed by LC/MS in the negative-ion mode using heptadecanoic acid (HDA) as internal standard (m/z=199 for lauric acid, m/z=269 for HDA). HDA was eluted on an XDB Eclipse C18 column isocratically at 2.2 mL/min for 1 min with a solvent mixture of 95% methanol and 5% water, both containing 0.25% acetic acid, and 5 mM ammonium acetate. The column temperature was 50° C. Electrospray ionization (ESI) was in the negative mode, capillary voltage was 4 kV, and fragmentor voltage was 100 V. Nitrogen was used as drying gas at a flow rate of 13 L/min and at a temperature of 350° C. Nebulizer pressure was set at 60 psi. We monitored [M-H]− in the selected-ion monitoring (SIM) mode using HDA as internal standard.
Inhibition of rAC activity was calculated as a reduction of lauric acid in the samples compared to vehicle controls. Median inhibitory concentration (IC50) values were calculated by non-linear regression analysis of log [concentration]/inhibition curves using. GraphPad Prism 5 (GraphPad Software, Inc., CA, USA) applying a standard slope curve fitting.

[2] = system: human colon adenocarcinoma cell line SW403; test: Ceramide levels in SW403 cells (lipid extraction, LC/MS); assay type: cell-based; details: 3 μM, 3 hrs, vs. vehicle
Description: Lipids were extracted using a chloroform/methanol mixture (2:1 vol/vol, 3 mL) containing internal standards. The organic phases were collected, dried under nitrogen, and dissolved in methanol/chloroform (3:1 vol/vol) for LC/MS analyses.
Ceramides were analyzed by LC/MS^n, using a 1100-LC system (Agilent Technologies) equipped with an Ion Trap XCT and interfaced with ESI (Agilent Technologies). They were separated on a Poroshell 300 SB C18 column (2.1×75 mm i.d., 5 μm; Agilent Technologies) maintained at 30° C. A linear gradient of methanol in water containing 5 mM ammonium acetate and 0.25% acetic acid (from 80% to 100% of methanol in 3 man) was applied at a flow rate of 1 mL/min. […]
Tissue-derived ceramides were identified by comparison of their LC retention times and MS^n fragmentation patterns with those of authentic standards (Avanti Polar Lipids). Extracted ion chromatograms were used to quantify myristoyl ceramide (C140, m/z 510.5>492.5>264.3), palmitoyl ceramide (C16:0, m/z 538.5>520.3>264.3), stearoyl ceramide (C18:0 m/z 566.5>548.3>264.3), lignoceroylceramide (C24:0 m/z 650.5>632.3>264.3), nervonoylceramide (C24:1 m/z 648.5>630.3>264.3) and using lauroyl ceramide standard (m/z 482.5>464.5>264.3). […]

SW403 cells [3] = test: SW403 cell viability, trypan blue assay; assay type: cell-based, human; details: prolonged (72 hrs) treatment, concentration-response, FIGS. 2A and 2B
Description: (§1) Cells were seeded in 12- or 96-well plates in complete medium 24 hrs before treatment and then incubated for 24 hrs (single treatment) or 72 hrs (multiple treatments) with different drug concentrations in media without serum. Cell viability was then evaluated.
The trypan blue exclusion assay is based on the principle that viable cells have intact cell membrane and can therefore exclude the trypan blue dye. Cell viability was measured after 24 hrs incubation with the drug. Cells were harvested, centrifuged at 1200 rpm for 10 min and pellets re-suspended in PBS. To evaluate viability, cells were diluted 1:1 with 0.4% trypan blue dye (Sigma), incubated for 1 min and white (viable) cells were counted with a hemacytometer.

SW403 cells [4] = test: SW403 cell viability, MTT assay; assay type: cell-based, human
Description: as §1
Alternatively, cell viability was assessed measuring mitochondrial functionality by the MIT assay, which is based on the reduction of the soluble tetrazolium salt MTT [(3-(4,5-dimethylthiazol-2-yl)-2,5-diphenyltetrazolium bromide] into insoluble formazan by mitochondria. Briefly, after treatment, cells were washed with PBS and incubated with 0.5 mg/ml, MTT for 2 hrs at room temperature, MTT reduction was quantified by absorbance at 570 nm using a UV-visible plate reader.

SW403 cells [5] = test: Isobolographic analysis of combined treatment of SW403 cells (ED50, trypan blue assay); assay type: cell-based, human
Description: Interaction between drugs was assessed by isobolographic analysis, based on the concept of dose-equivalence which follows from the dose effect curves of the individual drugs (Tallarida R I, Interactions between drugs and occupied receptors. Pharmacol. Ther. 2007, 113, 197-209; Tallarida R J, Raffa R B, The application of drug dose equivalence in the quantitative analysis of receptor occupation and drug combinations. Pharmacol. Ther. 2010; 127, 165-174). Specifically, the individual drugs' potency and efficacy allow calculating the expected effect of a combination of the two drugs.
In the experiment of combined treatment, isobolograms were constructed by plotting on vertical and horizontal axes the ED50 data of the single drugs measured by trypan blue assay after subcronic treatment for 72 hrs. The straight line with axial intercepts represents the isobole of additivity and allows calculating the theoretical additive dose. Synergism is indicated by an observed pair (x, y) that plots below the isobole for the specified effect, whereas sub-additivity is indicated when an observed pair (x, y) plots above the isobole.

[6] = SW403 cells, 72 hrs, isobole of additivity, higher than the experimental values

Sequence of rat acid ceramidase (rAC) (Q6P7S1 142-394): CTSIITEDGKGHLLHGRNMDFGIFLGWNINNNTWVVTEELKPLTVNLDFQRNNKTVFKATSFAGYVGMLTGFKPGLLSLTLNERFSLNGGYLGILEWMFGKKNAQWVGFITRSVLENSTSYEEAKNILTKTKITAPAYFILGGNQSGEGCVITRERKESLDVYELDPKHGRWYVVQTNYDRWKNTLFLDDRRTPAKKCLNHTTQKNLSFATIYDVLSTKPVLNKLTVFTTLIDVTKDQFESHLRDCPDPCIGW
Sequence of rat acid ceramidase (rAC) (Q6P7S1 21-141): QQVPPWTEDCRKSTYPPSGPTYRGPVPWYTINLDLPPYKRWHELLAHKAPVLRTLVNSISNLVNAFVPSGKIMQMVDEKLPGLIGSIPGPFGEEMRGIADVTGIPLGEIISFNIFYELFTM

IC50 [1]: 10 nM
Compound: CCCCCCNC(=O)n1cc(C(F)(F)F)c(=O)[nH]c1=O [Example 4, N-hexyl-2,4-dioxo-5-(trifluoromethyl)pyrimidine-1-carboxamide]
levels of C14:0, C16:0 and C18:0 ceramide [2]: increased
SW403 cell viability (trypan blue assay) (SW403 cells [3]): reduction of the viability
interaction with 5FU in reducing cell viability (MTT assay) (SW403 cells [4]; 72 hrs, compound 30 μM + 5FU 300 nM): synergistic effect
SW403 cell viability (MTT assay) (SW403 cells [4]; sub-chronic treatment 72 hrs, compounds 30 μM, 5FU 300 nM): reduced cell viability
theoretical dose (Th) to be used with 20 nM taxol to obtain an additive effect (SW403 cells [5]; [6]): 4.9 µM
theoretical dose (Th) to be used with 300 nM 5FU to obtain an additive effect (SW403 cells [5]; [6]): 7.8 µM
interaction with taxol in reducing viability of SW403 cells (isobologram) (SW403 cells [5]; prolonged treatment, 20 nM taxol, trypan blue ED50): synergistic effect
interaction with 5-fluorouracil in reducing viability of SW403 cells (isobologram) (SW403 cells [5]; prolonged treatment, 300 nM 5FU, trypan blue ED50): synergistic effect
